Results as given in patent US20160176867A1, “MODIFIED BET-PROTEIN-INHIBITING DIHYDROQUINOXALINONES AND DIHYDROPYRIDOPYRAZINONES” (BAYER PHARMA AKTIENGESELLSCHAFT, priority 2013, published 2016).
pIC50: −log10 of the molar value.

How the values were obtained:
[1] = target: T1, BRD4 bromo domain 2 [BRD4(2)] (Homo sapiens, UniProt O60885); experiment: BRD4/acetylated peptide H4 binding assay (TR-FRET), BRD4 bromo domain 2; conditions: inhibition of BRD4(2)/Ac-H4 peptide interaction
T1 construct: N-terminally His6-tagged BRD4(2) (amino acids 357-445); made in house; host or cells: E. coli
Text: (§1) Protein-Protein Interaction Assay: BRD4/Acetylated Peptide H4 Binding Assay
To assess the BRD4(2) binding strength of the substances described in this application, the ability thereof to inhibit the interaction between BRD4(2) and acetylated histone H4 in a dose-dependent manner was quantified.
(§2) For this purpose, a time-resolved fluorescence resonance energy transfer (TR-FRET) assay was used, which measures the binding between N-terminally His6-tagged BRD4(2) (amino acids 357-445) and a synthetic acetylated histone H4 (Ac-H4) peptide with sequence SGRGK(Ac)GGK(Ac)GLGK(Ac)GGAK(Ac)RHRKVLRDNGSGSK-biotin. The recombinant BRD4(2) protein produced in-house according to Filippakopoulos et al., Nature, 2010, 468:1119-1123 and Cell, 2012, 149:214-231, was expressed in E. coli and purified by means of (Ni-NTA) affinity and (Sephadex G-75) size exclusion chromatography. The Ac-H4 peptide can be purchased, for example, from Biosyntan (Berlin, Germany).
(§3) In the assay, typically 11 different concentrations of each substance (0.1 nM, 0.33 nM, 1.1 nM, 3.8 nM, 13 nM, 44 nM, 0.15 μM, 0.51 μM, 1.7 μM, 5.9 μM and 20 μM) were analysed as duplicates on the same microtitre plate. For this purpose, 100-fold concentrated solutions in DMSO were prepared by serial dilutions (1:3.4) of a 2 mM stock solution into a clear, 384-well microtitre plate (Greiner Bio-One, Frickenhausen, Germany). From this, 50 nl were transferred into a black test plate (Greiner Bio-One, Frickenhausen, Germany). The test was started by the addition of 2 μl of a 2.5-fold concentrated BRD4(2) solution (final concentration typically 100 nM in the 5 μl of reaction volume) in aqueous assay buffer [50 mM HEPES pH 7.5, 50 mM sodium chloride (NaCl); 50 mM potassium fluoride (KF); 0.25 mM CHAPS and 0.05% serum albumin (BSA)] to the substances in the test plate. This was followed by a 10-minute incubation step at 22° C. for the pre-equilibration of putative complexes between BRD4(2) and the substances. Subsequently, 3 μl of a 1.67-fold concentrated solution (in assay buffer) consisting of Ac-H4 peptide (83.5 nM) and TR-FRET detection reagents [83.5 nM anti-6His-XL665 (Cisbio Bioassays, Codolet, France) and 12.52 nM streptavidin-Eu), (Perkin Elmer, #W1024)] in assay buffer were added.
(§4) The mixture was then incubated in the dark at 22° C. for one hour and then at 4° C. for at least 3 hours and for no longer than overnight. The formation of BRD4(2)/Ac-H4 complexes was determined by the measurement of the resonance energy transfer from the streptavidin-Eu chelate to the anti-6His-XL665 antibody present in the reaction. For this purpose, the fluorescence emission was measured at 620 nm and 665 nm after excitation at 330-350 nm in a TR-FRET measuring instrument, for example a Rubystar or Pherastar (both from BMG Lab Technologies, Offenburg, Germany) or a Viewlux (Perkin-Elmer). The ratio of the emissions at 665 nm and at 622 nm was taken as an indicator of the amount of BRD4(2)/Ac-H4 complexes formed.
(§5) The data (ratios) obtained were normalized, with 0% inhibition corresponding to the mean from the measurements for a set of controls (typically 32 data points) in which all the reagents were present. In these, in place of test substances, 50 nl of DMSO (100%) were used. Inhibition of 100% corresponded to the mean from the measurements for a set of controls (typically 32 data points) in which all the reagents except BRD4(2) were present. The IC50 was determined by regression analysis based on a 4-parameter equation (minimum, maximum, IC50, Hill; Y=max+(min−max)/(1+(X/IC50)Hill)).

[2] = target: T2, BRD4 bromo domain 1 [BRD4(1)] (Homo sapiens, UniProt O60885); experiment: BRD4/acetylated peptide H4 binding assay (TR-FRET), BRD4 bromo domain 1; conditions: inhibition of BRD4(1)/Ac-H4 peptide interaction
T2 construct: N-terminally His6-tagged BRD4(1) (amino acids 67-152); made in house; host or cells: E. coli
Text: as §1
To assess the BRD4(1) binding strength of the substances described in this application, the ability thereof to inhibit the interaction between BRD4(1) and acetylated histone H4 in a dose-dependent manner was quantified.
as §2, with “BRD4(1)” for “BRD4(2)”, “67-152)” for “357-445)”, “GRGK(Ac)GGK(Ac)GLGK(Ac)GGAK(Ac)RHGSGSK-biotin.” for “SGRGK(Ac)GGK(Ac)GLGK(Ac)GGAK(Ac)RHRKVLRDNGSGSK-biotin.”
as §3, with “concentrated BRD4(1)” for “concentrated BRD4(2)”, “typically 10” for “typically 100”, “chloride (NaCl),” for “chloride (NaCl); 50 mM potassium fluoride (KF);”, “between BRD4(1)” for “between BRD4(2)”, “substances.” for “substances. Subsequently, 3 μl of a 1.67-fold concentrated solution (in assay buffer) consisting of Ac-H4 peptide (83.5 nM) and TR-FRET detection reagents [83.5 nM anti-6His-XL665 (Cisbio Bioassays, Codolet, France) and 12.52 nM streptavidin-Eu), (Perkin Elmer, #W1024)] in assay buffer were added.”
as §4, with “BRD4(1)/Ac-H4” for “BRD4(2)/Ac-H4”, “cryptate” for “chelate”
as §5, with “BRD4(1)” for “BRD4(2)”

Row | pIC50 [1] | pIC50 [2] | SMILES
1 | 7.32 | 6.68 | COc1ccc(CN2c3cc(Nc4cccc(S(=O)(=O)N5CCOCC5)c4)ccc3N(C)C(=O)[C@H]2C)cc1 [Example 11, (3R)-4-(4-Methoxybenzyl)-1,3-dimethyl-6-{[3-(morpholin-4-ylsulphonyl)phenyl]amino}-3,4-dihydroquinoxalin-2(1H)-one]
2 | 7.22 | 6.89 | COc1ccc(C(=O)N2CCN(C)CC2)cc1Nc1ccc2c(n1)N(C1CCOCC1)[C@H](C)C(=O)N2C [Example 17, (3R)-6-({2-Methoxy-5-[(4-methylpiperazin-1-yl)carbonyl]phenyl}amino)-1,3-dimethyl-4-(tetrahydro-2H-pyran-4-yl)-3,4-dihydropyrido[2,3-b]pyrazin-2(1H)-one]
3 | 6.88 | 6.63 | COc1ccc(C(=O)NCCN(C)C)cc1Nc1ccc2c(n1)N(C1CCOCC1)[C@H](C)C(=O)N2C [Example 19, N-2-(Dimethylamino)ethyl-3-{[(3R)-1,3-dimethyl-2-oxo-4-(tetrahydro-2H-pyran-4-yl)-1,2,3,4-tetrahydropyrido[2,3-b]pyrazin-6-yl]amino}-4-methoxybenzamide]
4 | 6.80 | 6.15 | C[C@@H]1C(=O)N(C)c2ccc(Nc3cccc(C(=O)N[C@H]4CC[C@H](N5CCN(CC6CC6)CC5)CC4)c3)cc2N1Cc1c(F)cccc1F [Example 22, N-{trans-4-[4-(Cyclopropylmethyl)piperazin-1-yl]cyclohexyl}-3-{[4-(2,6-difluorobenzyl)-1,3-dimethyl-2-oxo-1,2,3,4-tetrahydroquinoxalin-6-yl]amino}benzamide]
5 | 7.41 | 7.66 | CCN(CC)S(=O)(=O)c1cccc(Nc2ccc3c(n2)N(C2CCOCC2)[C@H](C)C(=O)N3C)c1 [Example 32, 3-{[(3R)-1,3-dimethyl-2-oxo-4-(tetrahydro-2H-pyran-4-yl)-1,2,3,4-tetrahydropyrido[2,3-b]pyrazin-6-yl]amino}-N,N-diethylbenzene-sulphonamide]
6 | 5.37 | 6.14 | C[C@H]1C(=O)N(C)c2ccc(Nc3cccc(S(=O)(=O)N[C@H]4CC[C@H](N5CCN(CC6CC6)CC5)CC4)c3)nc2N1C1CCOCC1 [Example 36, N-{trans-4-[4-(cyclopropylmethyl)-piperazin-1-yl]cyclohexyl}-3-{[(3S)-1,3-dimethyl-2-oxo-4-(tetrahydro-2H-pyran-4-yl)-1,2,3,4-tetrahydropyrido[2,3-b]pyrazin-6-yl]amino}-benzenesulphonamide]
7 | 6.58 | 6.70 | C[C@@H]1C(=O)N(C)c2ccc(Nc3cccc(S(=O)(=O)N4CC5(CCC5)C4)c3)nc2N1C1CCN(C(=O)OC(C)(C)C)CC1 [Example 60, tert-butyl 4-[(3R)-6-{[3-(2-azaspiro[3.3]hept-2-ylsulphonyl)phenyl]-amino}-1,3-dimethyl-2-oxo-2,3-dihydropyrido[2,3-b]pyrazin-4(1H)-yl]piperidine-1-carboxylate]
8 | 6.78 | 6.68 | C[C@@H]1C(=O)N(C)c2ccc(Nc3cccc(S(=O)(=O)N(C)C)c3)nc2N1C1CCN(C(=O)OC(C)(C)C)CC1 [Example 61, tert-butyl 4-[(3R)-6-{[3-(dimethylsulphamoyl)-phenyl]amino}-1,3-dimethyl-2-oxo-2,3-dihydropyrido[2,3-b]pyrazin-4(1H)-yl]piperidine-1-carboxylate]
9 | 6.88 | 6.59 | C[C@@H]1C(=O)N(C)c2ccc(Nc3cccc(S(=O)(=O)N4CCN(C)CC4)c3)nc2N1C1CCN(C(=O)OC(C)(C)C)CC1 [Example 62, tert-butyl 4-[(3R)-1,3-dimethyl-6-({3-[(4-methylpiperazin-1-yl)sulphonyl]phenyl}-amino)-2-oxo-2,3-dihydropyrido[2,3-b]pyrazin-4(1H)-yl]piperidine-1-carboxylate]
10 | 6.80 | 6.79 | Cc1ccc(Nc2ccc3c(n2)N(C2CCOCC2)[C@H](C)C(=O)N3C)cc1S(N)(=O)=O [Example 63, 5-{[(3R)-1,3-dimethyl-2-oxo-4-(tetrahydro-2H-pyran-4-yl)-1,2,3,4-tetrahydropyrido[2,3-b]pyrazin-6-yl]amino}-2-methylbenzene-sulphonamide]
